Experimental data published in publication PMC5772982 (Molecular cell, 2017).

Biological target: T1, PYL1 (Arabidopsis thaliana, UniProt Q8VZS8, S119A)
T1 sequence (Q8VZS8 2-221 S119A): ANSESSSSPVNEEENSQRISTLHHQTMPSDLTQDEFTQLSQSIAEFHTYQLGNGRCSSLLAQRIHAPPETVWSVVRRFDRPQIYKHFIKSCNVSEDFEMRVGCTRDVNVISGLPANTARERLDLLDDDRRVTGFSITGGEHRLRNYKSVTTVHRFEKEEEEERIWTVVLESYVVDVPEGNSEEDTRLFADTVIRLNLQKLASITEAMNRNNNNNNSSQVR
Assay: microscale thermophoresis
Type: binding

CC1=CC(=O)CC(C)(C)[C@@]1(O)/C=C/C(C)=C\C(=O)O [Abscisic Acid]
Kd: 219 µM
